Data reported in US20240016781A1, “TREATMENT OF KRAS MUTANT CANCERS” (MEI Pharma, Inc., priority 2020, published 2024).
Read-outs that look alike come from different tables or passages of the source.

Key:
Assay in all cases: 72-hour CellTiter-Glo 2.0 growth inhibition screen (single agent, 9x9 combination dose matrix);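 on Best CI Level: inhibition effect level at which the best CI was calculated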
Type in all cases: cell-based
KYSE-410 = tested on: KYSE-410;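 on Best CI Level: inhibition effect level at which the best CI was calculated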
Panc 04.03 = tested on: Panc 04.03;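 on Best CI Level: inhibition effect level at which the best CI was calculated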
HCC1171 = tested on: HCC1171;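 on Best CI Level: inhibition effect level at which the best CI was calculated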
SW48 KRAS (G12D/+) = tested on: SW48 KRAS (G12D/+);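 on Best CI Level: inhibition effect level at which the best CI was calculated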
SW48 = tested on: SW48
[1] = KYSE-410 (KRAS G12C), enhancer + MEI-522 (Voruciclib), 72 h;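 on Best CI Level: inhibition effect level at which the best CI was calculated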
[2] = KYSE-410, Esophageal, Additional Single Agent Responses (inhibition, % I), 72 h
[3] = KYSE-410, Esophageal, growth inhibition (GI), AUC, single agent, 72 h
[4] = enhancer combined with MEI-522 (Voruciclib), KYSE-410 (Esophageal), 72 hours, inhibition data
[5] = Panc 04.03 (KRAS G12D), enhancer + MEI-522 (Voruciclib), 72 h;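 on Best CI Level: inhibition effect level at which the best CI was calculated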
[6] = Panc 04.03, Pancreas, Additional Single Agent Responses (inhibition, % I), 72 h
[7] = Panc 04.03, Pancreas, growth inhibition (GI), AUC, single agent, 72 h
[8] = enhancer combined with MEI-522 (Voruciclib), Panc 04.03 (Pancreas), 72 hours, inhibition data
[9] = HCC1171 (KRAS G12C), enhancer + MEI-522 (Voruciclib), 72 h;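 on Best CI Level: inhibition effect level at which the best CI was calculated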
[10] = HCC1171, Lung, Additional Single Agent Responses (inhibition, % I), 72 h
[11] = HCC1171, Lung, growth inhibition (GI) curve, single agent, 72 h
[12] = HCC1171, Lung, growth inhibition (GI), AUC, single agent, 72 h
[13] = enhancer combined with MEI-522 (Voruciclib), HCC1171 (Lung), 72 hours, inhibition data
[14] = SW48 KRAS (G12D/+), Colorectal, Additional Single Agent Responses (inhibition, % I), 72 h
[15] = SW48 KRAS (G12D/+), Colorectal, growth inhibition (GI), AUC, single agent, 72 h
[16] = SW48 KRAS (G12D/+), enhancer + MEI-522 (Voruciclib), 72 h
[17] = enhancer combined with MEI-522 (Voruciclib), SW48 KRAS (G12D/+) (Colorectal), 72 hours, inhibition data
[18] = SW48 (KRAS WT), enhancer + MEI-522 (Voruciclib), 72 h
[19] = SW48, Colorectal, Additional Single Agent Responses (inhibition, % I), 72 h
[20] = SW48, Colorectal, growth inhibition (GI), AUC, single agent, 72 h
[21] = enhancer combined with MEI-522 (Voruciclib), SW48 (Colorectal), 72 hours, inhibition data
[22] = KYSE-410, Esophageal, growth inhibition (GI) curve, single agent, 72 h
[23] = Panc 04.03, Pancreas, growth inhibition (GI) curve, single agent, 72 h
[24] = SW48, Colorectal, growth inhibition (GI) curve, single agent, 72 h

SMILES: C=CC(=O)N1CCN(c2nc(=O)n(-c3c(C)ccnc3C(C)C)c3nc(-c4c(O)cccc4F)c(F)cc23)[C@@H](C)C1 [AMG510]
- EC50 (KYSE-410; Homo sapiens, KYSE-410, 72 h, KYSE-410, Esophageal, Additional Single Agent Responses (inhibition, % I), 72 h): 5.8 nM
- EC50 (KYSE-410; Homo sapiens, KYSE-410, 72 h, KYSE-410, Esophageal, growth inhibition (GI) curve, single agent, 72 h): 6 nM
- Emax (KYSE-410; Homo sapiens, KYSE-410, Esophageal, Additional Single Agent Responses, 72 h, read-out: Max Response (% I)): 20%
- Emax (KYSE-410; Homo sapiens, KYSE-410, Esophageal, growth inhibition (GI), single agent, 72 h, read-out: Max Response (% GI)): 24%
- Best CI (KYSE-410; [1]): 1.14
- Bliss Volume (KYSE-410; [1]): 1.47
- HSA volume (KYSE-410; [1]): 2.26
- Loewe Volume (KYSE-410; [1]): 2.48
- Synergy Score (KYSE-410; [1]): 1.71
- Response Area (KYSE-410; [2]): 0.88
- Response Area (KYSE-410; [3]): 1.06
- Best CI (KYSE-410; [4]): 1.14
- Bliss Volume (KYSE-410; [4]): 1.06
- HSA volume (KYSE-410; [4]): 1.87
- Loewe Volume (KYSE-410; [4]): 2.13
- Synergy Score (KYSE-410; [4]): 1.19
- Best CI Level (KYSE-410; enhancer combined with MEI-522 (Voruciclib), KYSE-410 (Esophageal), 72 hours, inhibition data, unit assumed): 45%
- EC50 (Panc 04.03; Homo sapiens, Panc 04.03, 72 h): 3000 nM
- Emax (Panc 04.03; Homo sapiens, Panc 04.03, 72 h, read-out: Max Response (% GI)): 25%
- Emax (Panc 04.03; Homo sapiens, Panc 04.03, 72 h, read-out: Max Response (% I)): 19%
- Best CI (Panc 04.03; [5]): 0.51
- Bliss Volume (Panc 04.03; [5]): 2.52
- HSA volume (Panc 04.03; [5]): −2.59
- Loewe Volume (Panc 04.03; [5]): 2.70
- Synergy Score (Panc 04.03; [5]): 3.01
- Response Area (Panc 04.03; [6]): 0.00
- Response Area (Panc 04.03; [7]): 0.00
- Best CI (Panc 04.03; [8]): 0.60
- Best CI Level (Panc 04.03; [8]): 20
- Bliss Volume (Panc 04.03; [8]): 0.79
- HSA volume (Panc 04.03; [8]): −2.11
- Loewe Volume (Panc 04.03; [8]): 1.18
- Synergy Score (Panc 04.03; [8]): 1.06
- Best CI (HCC1171; [9]): 0.26
- Bliss Volume (HCC1171; [9]): 3.26
- HSA volume (HCC1171; [9]): 4.61
- Loewe Volume (HCC1171; [9]): 6.02
- Synergy Score (HCC1171; [9]): 7.42
- EC50 (HCC1171; [10]): 2.8 nM
- Response Area (HCC1171; [10]): 1.99
- Emax (HCC1171; HCC1171, Lung, Additional Single Agent Responses, 72 h, read-out: Max Response (% I)): 48%
- GI50 (HCC1171; [11]): 5.5 nM
- Response Area (HCC1171; [12]): 3.50
- Emax (HCC1171; HCC1171, Lung, growth inhibition (GI), single agent, 72 h, read-out: Max Response (% GI)): 85%
- Best CI (HCC1171; [13]): 0.22
- Bliss Volume (HCC1171; [13]): −0.99
- HSA volume (HCC1171; [13]): 2.26
- Loewe Volume (HCC1171; [13]): 3.06
- Synergy Score (HCC1171; [13]): 2.15
- Best CI Level (HCC1171; enhancer combined with MEI-522 (Voruciclib), HCC1171 (Lung), 72 hours, inhibition data, unit assumed): 50%
- Bliss Volume (SW48 KRAS (G12D/+)): −0.98
- EC50 (SW48 KRAS (G12D/+); Homo sapiens, SW48, 72 h): 3000 nM
- Emax (SW48 KRAS (G12D/+); Homo sapiens, SW48, 72 h, read-out: Max Response (% GI)): 15%
- Emax (SW48 KRAS (G12D/+); Homo sapiens, SW48, 72 h, read-out: Max Response (% I)): 11%
- Response Area (SW48 KRAS (G12D/+); [14]): 0.00
- Response Area (SW48 KRAS (G12D/+); [15]): 0.00
- Best CI (SW48 KRAS (G12D/+); [16]): 0.55
- Bliss Volume (SW48 KRAS (G12D/+); [16]): 0.17
- Loewe Volume (SW48 KRAS (G12D/+); [16]): 0.13
- Synergy Score (SW48 KRAS (G12D/+); [16]): 2.74
- Best CI (SW48 KRAS (G12D/+); [17]): 1.38
- Loewe Volume (SW48 KRAS (G12D/+); [17]): −0.76
- Synergy Score (SW48 KRAS (G12D/+); [17]): 0.86
- Best CI Level (SW48 KRAS (G12D/+); enhancer combined with MEI-522 (Voruciclib), SW48 KRAS (G12D/+) (Colorectal), 72 hours, inhibition data, unit assumed): 20%
- EC50 (SW48; Homo sapiens, SW48, 72 h, SW48, Colorectal, Additional Single Agent Responses (inhibition, % I), 72 h): 2710 nM
- EC50 (SW48; Homo sapiens, SW48, 72 h, SW48, Colorectal, growth inhibition (GI) curve, single agent, 72 h): 2720 nM
- Emax (SW48; Homo sapiens, SW48, Colorectal, Additional Single Agent Responses, 72 h, read-out: Max Response (% I)): 14%
- Emax (SW48; Homo sapiens, SW48, Colorectal, growth inhibition (GI), single agent, 72 h, read-out: Max Response (% GI)): 17%
- Best CI (SW48; [18]): 0.46
- Bliss Volume (SW48; [18]): 2.71
- HSA volume (SW48; [18]): 0.73
- Loewe Volume (SW48; [18]): 2.40
- Synergy Score (SW48; [18]): 4.05
- Response Area (SW48; [19]): 0.48
- Response Area (SW48; [20]): 0.61
- Best CI (SW48; [21]): 0.50
- Bliss Volume (SW48; [21]): 1.20
- HSA volume (SW48; [21]): 0.35
- Loewe Volume (SW48; [21]): 1.24
- Synergy Score (SW48; [21]): 1.36
- Best CI Level (SW48; enhancer combined with MEI-522 (Voruciclib), SW48 (Colorectal), 72 hours, inhibition data, unit assumed): 35%

SMILES: CN1CC[C@@H](c2c(O)cc(O)c3c(=O)cc(-c4ccc(C(F)(F)F)cc4Cl)oc23)[C@@H]1CO [MEI-522(Voruciclib)]
- EC50 (KYSE-410; [2]): 1740 nM
- IC50 (KYSE-410; [2]): 1900 nM
- Response Area (KYSE-410; [2]): 1.97
- Max Response (% I) (KYSE-410; KYSE-410, Esophageal, Additional Single Agent Responses, 72 h): 72 % I
- EC50 (KYSE-410; [22]): 1750 nM
- GI50 (KYSE-410; [22]): 1800 nM
- Response Area (KYSE-410; [3]): 2.41
- Max Response (% GI) (KYSE-410; KYSE-410, Esophageal, growth inhibition (GI), single agent, 72 h): 87 % GI
- EC50 (Panc 04.03; [6]): 1310 nM
- IC50 (Panc 04.03; [6]): 1410 nM
- Response Area (Panc 04.03; [6]): 2.65
- Max Response (% I) (Panc 04.03; Panc 04.03, Pancreas, Additional Single Agent Responses, 72 h): 92 % I
- EC50 (Panc 04.03; [23]): 1740 nM
- GI50 (Panc 04.03; [23]): 1300 nM
- Response Area (Panc 04.03; [7]): 4.67
- Max Response (% GI) (Panc 04.03; Panc 04.03, Pancreas, growth inhibition (GI), single agent, 72 h): 168 % GI
- EC50 (HCC1171; [10]): 680 nM
- IC50 (HCC1171; [10]): 3030 nM
- Response Area (HCC1171; [10]): 1.62
- Max Response (% I) (HCC1171; HCC1171, Lung, Additional Single Agent Responses, 72 h): 51 % I
- EC50 (HCC1171; [11]): 674 nM
- GI50 (HCC1171; [11]): 734 nM
- Response Area (HCC1171; [12]): 2.84
- Max Response (% GI) (HCC1171; HCC1171, Lung, growth inhibition (GI), single agent, 72 h): 89 % GI
- IC50 (SW48 KRAS (G12D/+); [14]): 572 nM
- Response Area (SW48 KRAS (G12D/+); [14]): 2.81
- EC50 (SW48 KRAS (G12D/+); SW48 KRAS (G12D/+), Colorectal, Additional Single Agent Responses (inhibition, % I), 72 h, read-out: EC50): 463 nM
- Max Response (% I) (SW48 KRAS (G12D/+); SW48 KRAS (G12D/+), Colorectal, Additional Single Agent Responses, 72 h): 84 % I
- GI50 (SW48 KRAS (G12D/+); SW48 KRAS (G12D/+), Colorectal, growth inhibition (GI) curve, single agent, 72 h): 428 nM
- EC50 (SW48 KRAS (G12D/+); SW48 KRAS (G12D/+), Colorectal, growth inhibition (GI) curve, single agent, 72 h, read-out: EC50): 541 nM
- Response Area (SW48 KRAS (G12D/+); [15]): 4.36
- Max Response (% GI) (SW48 KRAS (G12D/+); SW48 KRAS (G12D/+), Colorectal, growth inhibition (GI), single agent, 72 h): 139 % GI
- EC50 (SW48; [19]): 443 nM
- IC50 (SW48; [19]): 526 nM
- Response Area (SW48; [19]): 2.91
- Max Response (% I) (SW48; SW48, Colorectal, Additional Single Agent Responses, 72 h): 87 % I
- EC50 (SW48; [24]): 566 nM
- GI50 (SW48; [24]): 422 nM
- Response Area (SW48; [20]): 4.44
- Max Response (% GI) (SW48; SW48, Colorectal, growth inhibition (GI), single agent, 72 h): 135 % GI
